Measurements from PubChem BioAssay (NCI).
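In this assay, cells in 96-well plates receive the compound at five concentrations for 48 hours. Endpoints are linearly interpolated between the surrounding concentrations. Here, GI50 denotes the concentration required for 50% inhibition of growth. Definition used: TGI = concentration required for complete inhibition of growth.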

Legend:
Assay in all cases: NCI-60 cell line screen, 48 h
786-0 renal = system: 786-0 renal
A498 renal = system: A498 renal
A549 NSCLC = system: A549 NSCLC
ACHN renal = system: ACHN renal
BT-549 breast = system: BT-549 breast
CAKI-1 renal = system: CAKI-1 renal
CCRF-CEM leukemia = system: CCRF-CEM leukemia
COLO 205 colon = system: COLO 205 colon
DU-145 prostate = system: DU-145 prostate
EKVX NSCLC = system: EKVX NSCLC
HCC-2998 colon = system: HCC-2998 colon
HCT-116 colon = system: HCT-116 colon
HCT-15 colon = system: HCT-15 colon
HL-60(TB) leukemia = system: HL-60(TB) leukemia
HOP-62 NSCLC = system: HOP-62 NSCLC
HOP-92 NSCLC = system: HOP-92 NSCLC
HS 578T breast = system: HS 578T breast
HT29 colon = system: HT29 colon
IGROV1 ovarian = system: IGROV1 ovarian
K-562 leukemia = system: K-562 leukemia
KM12 colon = system: KM12 colon
LOX IMVI melanoma = system: LOX IMVI melanoma
M14 melanoma = system: M14 melanoma
MALME-3M melanoma = system: MALME-3M melanoma
MCF7 breast = system: MCF7 breast
MDA-MB-231 breast = system: MDA-MB-231 breast
MDA-MB-435 = system: MDA-MB-435
MOLT-4 leukemia = system: MOLT-4 leukemia
NCI-H226 lung = system: NCI-H226 lung
NCI-H23 lung = system: NCI-H23 lung
NCI-H460 lung = system: NCI-H460 lung
NCI-H522 lung = system: NCI-H522 lung
NCI/ADR-RES ovarian = system: NCI/ADR-RES ovarian
OVCAR-3 ovarian = system: OVCAR-3 ovarian
OVCAR-4 ovarian = system: OVCAR-4 ovarian
OVCAR-5 ovarian = system: OVCAR-5 ovarian
OVCAR-8 ovarian = system: OVCAR-8 ovarian
PC-3 prostate = system: PC-3 prostate
RPMI-8226 leukemia = system: RPMI-8226 leukemia
RXF 393 renal = system: RXF 393 renal
SF-268 CNS = system: SF-268 CNS
SF-295 CNS = system: SF-295 CNS
SF-539 CNS = system: SF-539 CNS
SK-MEL-2 melanoma = system: SK-MEL-2 melanoma
SK-MEL-28 melanoma = system: SK-MEL-28 melanoma
SK-MEL-5 melanoma = system: SK-MEL-5 melanoma
SK-OV-3 ovarian = system: SK-OV-3 ovarian
SN12C renal = system: SN12C renal
SNB-19 CNS = system: SNB-19 CNS
SNB-75 CNS = system: SNB-75 CNS
SR leukemia = system: SR leukemia
SW-620 colon = system: SW-620 colon
T-47D breast = system: T-47D breast
TK-10 renal = system: TK-10 renal
U251 CNS = system: U251 CNS
UACC-257 melanoma = system: UACC-257 melanoma
UACC-62 melanoma = system: UACC-62 melanoma
UO-31 renal = system: UO-31 renal

## ClC1=C(Cl)C(Cl)=C(Cl)C1=Cc1ccccc1
786-0 renal
  GI50: 1320 nM
  TGI: 3.08 µM
A498 renal
  GI50: 1390 nM
  TGI: 2780 nM
A549 NSCLC
  GI50: 1630 nM
  TGI: 4.32 µM
ACHN renal
  GI50: 703 nM
  TGI: 2220 nM
BT-549 breast
  GI50: 1680 nM
  TGI: 3.89 µM
CAKI-1 renal
  GI50: 342 nM
  TGI: 1130 nM
CCRF-CEM leukemia
  GI50: 288 nM
  TGI: 3.57 µM
COLO 205 colon
  GI50: 937 nM
  TGI: 2650 nM
DU-145 prostate
  GI50: 708 nM
  TGI: 2830 nM
EKVX NSCLC
  GI50: 1400 nM
  TGI: 3.39 µM
HCC-2998 colon
  GI50: 1730 nM
  TGI: 3.14 µM
HCT-116 colon
  GI50: 293 nM
  TGI: 936 nM
HCT-15 colon
  GI50: 1220 nM
  TGI: 6.04 µM
HL-60(TB) leukemia
  GI50: 595 nM
  TGI: 2400 nM
HOP-62 NSCLC
  GI50: 1640 nM
  TGI: 3.68 µM
HOP-92 NSCLC
  GI50: 621 nM
  TGI: 1610 nM
HS 578T breast
  GI50: 915 nM
  TGI: 10.1 µM
HT29 colon
  GI50: 457 nM
  TGI: 2270 nM
IGROV1 ovarian
  GI50: 916 nM
  TGI: 2510 nM
K-562 leukemia
  GI50: 277 nM
  TGI: 3.5 µM
KM12 colon
  GI50: 1470 nM
  TGI: 3.11 µM
LOX IMVI melanoma
  GI50: 198 nM
  TGI: 469 nM
M14 melanoma
  GI50: 495 nM
  TGI: 2110 nM
MALME-3M melanoma
  GI50: 1490 nM
  TGI: 4.15 µM
MCF7 breast
  GI50: 610 nM
  TGI: 7.02 µM
MDA-MB-231 breast
  GI50: 2430 nM
  TGI: 10.4 µM
MDA-MB-435
  GI50: 350 nM
  TGI: 1160 nM
MOLT-4 leukemia
  GI50: 314 nM
  TGI: 1560 nM
NCI-H226 lung
  GI50: 1910 nM
  TGI: 3.86 µM
NCI-H23 lung
  GI50: 520 nM
  TGI: 2080 nM
NCI-H460 lung
  GI50: 1250 nM
  TGI: 4.13 µM
NCI-H522 lung
  GI50: 189 nM
  TGI: 459 nM
NCI/ADR-RES ovarian
  GI50: 287 nM
  TGI: 1160 nM
OVCAR-3 ovarian
  GI50: 463 nM
  TGI: 1620 nM
OVCAR-4 ovarian
  GI50: 2000 nM
  TGI: 6.92 µM
OVCAR-5 ovarian
  GI50: 1650 nM
  TGI: 3.85 µM
OVCAR-8 ovarian
  GI50: 417 nM
  TGI: 21 µM
PC-3 prostate
  GI50: 622 nM
  TGI: 3.7 µM
RPMI-8226 leukemia
  GI50: 311 nM
  TGI: 2300 nM
RXF 393 renal
  GI50: 920 nM
  TGI: 2230 nM
SF-268 CNS
  GI50: 753 nM
  TGI: 2430 nM
SF-295 CNS
  GI50: 1330 nM
  TGI: 3.74 µM
SF-539 CNS
  GI50: 1830 nM
  TGI: 4.2 µM
SK-MEL-2 melanoma
  GI50: 1380 nM
  TGI: 2970 nM
SK-MEL-28 melanoma
  GI50: 1620 nM
  TGI: 3.27 µM
SK-MEL-5 melanoma
  GI50: 1380 nM
  TGI: 2680 nM
SK-OV-3 ovarian
  GI50: 2000 nM
  TGI: 4.66 µM
SN12C renal
  GI50: 1950 nM
  TGI: 7.15 µM
SNB-19 CNS
  GI50: 1630 nM
  TGI: 3.58 µM
SNB-75 CNS
  GI50: 1460 nM
  TGI: 3.1 µM
SR leukemia
  GI50: 334 nM
  TGI: 2570 nM
SW-620 colon
  GI50: 293 nM
  TGI: 1030 nM
T-47D breast
  GI50: 1150 nM
  TGI: 3.56 µM
TK-10 renal
  GI50: 645 nM
  TGI: 2020 nM
U251 CNS
  GI50: 517 nM
  TGI: 1590 nM
UACC-257 melanoma
  GI50: 731 nM
  TGI: 2130 nM
UACC-62 melanoma
  GI50: 1650 nM
  TGI: 5.02 µM
UO-31 renal
  GI50: 527 nM
  TGI: 1980 nM
